Patent US11331299B2, “Medicinal use of serrulatane diterpenes” (The University of Sydney, priority 2016, dated 2022)
Read-outs that look alike come from different tables or passages of the source.

System: 280 human cancer cell lines
Assay: OncoPanel cell proliferation assay (10-day)
Format: cell-based
Conditions: for EC50: read-out: Cell Count EC50; for IC50: read-out: Cell Count IC50
[1] = Homo sapiens, 22Rv1, 22Rv1, Prostate
[2] = Homo sapiens, 786-0, 786-O, Kidney
[3] = Homo sapiens, A7, Skin (Melanoma)
[4] = Homo sapiens, A101D, Skin (Melanoma)
[5] = Homo sapiens, A 172, A172, CNS - Glioma
[6] = Homo sapiens, A253, A-253, Head and Neck
[7] = Homo sapiens, A388, Head and Neck
[8] = Homo sapiens, A498, A498, Kidney
[9] = Homo sapiens, A549, A549, Lung - NSCLC
[10] = Homo sapiens, A673, A-673, Soft Tissue - Sarcoma
[11] = Homo sapiens, A704, A-704, Kidney
[12] = Homo sapiens, A-375, A375, Skin (Melanoma)
[13] = Homo sapiens, A-427, A427, Lung - NSCLC
[14] = Homo sapiens, A-431, A431, Head and Neck
[15] = Homo sapiens, AN3-CA, AN3 CA, Female GU - Uterus
[16] = Homo sapiens, ARH-77, ARH-77, Myeloma
[17] = Homo sapiens, ASPC1, AsPC-1, Pancreas
[18] = Homo sapiens, AU565, AU565, Breast
[19] = Homo sapiens, BCP-1, BCP-1, Lymphoma
[20] = Homo sapiens, BE(2)-C, BE(2)C, CNS - Neuroblastoma
[21] = Homo sapiens, BFTC-905, BFTC-905, Bladder
[22] = Homo sapiens, BHT-101, BHT-101, Endocrine - Thyroid
[23] = Homo sapiens, BM-1604, BM-1604, Prostate
[24] = Homo sapiens, BPH-1, BPH1, Prostate
[25] = Homo sapiens, BT-20, BT20, Breast

CC(C)=CCC[C@H](C)[C@@H]1CC[C@@H](C)c2c1cc(C)c(O)c2O [Compound 4, 7,8-dihydroxyserrulat-14-ene]
Number of cell types, GI Activity Potent (GI50 range 0.03-0.099 μM, of 280 cell types): 0 | Number of cell types, GI Activity moderately potent (GI50 range 0.1-0.99 μM, of 280 cell types): 1 | Number of cell types, GI Activity Strong (GI50 range 1-2.99 μM, of 280 cell types): 11 | Number of cell types, GI Activity moderately strong (GI50 range 3-9.99 μM, of 280 cell types): 125 | Number of cell types, GI Activity weak (GI50 range 10-30.00 μM, of 280 cell types): 130 | Number of cell types, GI Activity very weak (GI50 range >30 μM, of 280 cell types): 13 | GI50 (Homo sapiens, 12 cell lines with moderately potent to strong activity, read-out: GI50): 0.68 to 2.92 µM | EC50 [1]: 9.08 µM | GI50 (Homo sapiens, 22Rv1, 22Rv1, Prostate, read-out: Cell Count GI50): 9 µM | IC50 [1]: 9.08 µM | EC50 (Homo sapiens, 647-V, Bladder): 5.99 µM | GI50 (Homo sapiens, 647-V, Bladder, read-out: Cell Count GI50): 5.99 µM | IC50 (Homo sapiens, 647-V, Bladder): 6 µM | EC50 (Homo sapiens, 769-P, Kidney): 3.72 µM | GI50 (Homo sapiens, 769-P, Kidney, read-out: Cell Count GI50): 3.71 µM | IC50 (Homo sapiens, 769-P, Kidney): 3.72 µM | EC50 [2]: 14 µM | GI50 (Homo sapiens, 786-0, 786-O, Kidney, read-out: Cell Count GI50): 13.9 µM | IC50 [2]: 14 µM | EC50 (Homo sapiens, 5637, Bladder): 15.2 µM | GI50 (Homo sapiens, 5637, Bladder, read-out: Cell Count GI50): 15.1 µM | IC50 (Homo sapiens, 5637, Bladder): 15.2 µM | EC50 [3]: 10.5 µM | GI50 (Homo sapiens, A7, Skin (Melanoma), read-out: Cell Count GI50): 10.5 µM | IC50 [3]: 10.5 µM | EC50 [4]: > 30 µM | GI50 (Homo sapiens, A101D, Skin (Melanoma), read-out: Cell Count GI50): > 30 µM | IC50 [4]: > 30 µM | EC50 [5]: 8.08 µM | GI50 (Homo sapiens, A 172, A172, CNS - Glioma, read-out: Cell Count GI50): 8.03 µM | IC50 [5]: 8.08 µM | EC50 [6]: 18.2 µM | GI50 (Homo sapiens, A253, A-253, Head and Neck, read-out: Cell Count GI50): 18.1 µM | IC50 [6]: 18.2 µM | EC50 [7]: 7.66 µM | GI50 (Homo sapiens, A388, Head and Neck, read-out: Cell Count GI50): 7.59 µM | IC50 [7]: 7.66 µM | EC50 [8]: 12.3 µM | GI50 (Homo sapiens, A498, A498, Kidney, read-out: Cell Count GI50): 12.2 µM | IC50 [8]: 12.3 µM | EC50 [9]: 10.9 µM | GI50 (Homo sapiens, A549, A549, Lung - NSCLC, read-out: Cell Count GI50): 10.8 µM | IC50 [9]: 10.9 µM | EC50 [10]: 2.88 µM | GI50 (Homo sapiens, A673, A-673, Soft Tissue - Sarcoma, read-out: Cell Count GI50): 2.87 µM | IC50 [10]: 2.88 µM | EC50 [11]: 5.7 µM | GI50 (Homo sapiens, A704, A-704, Kidney, read-out: Cell Count GI50): 5.41 µM | IC50 [11]: 5.7 µM | EC50 [12]: 5.74 µM | GI50 (Homo sapiens, A-375, A375, Skin (Melanoma), read-out: Cell Count GI50): 5.74 µM | IC50 [12]: 5.74 µM | EC50 [13]: 10 µM | GI50 (Homo sapiens, A-427, A427, Lung - NSCLC, read-out: Cell Count GI50): 9.98 µM | IC50 [13]: 10 µM | EC50 [14]: 24.8 µM | GI50 (Homo sapiens, A-431, A431, Head and Neck, read-out: Cell Count GI50): 24.8 µM | IC50 [14]: 24.8 µM | EC50 (Homo sapiens, ACHN, Kidney): 9.5 µM | GI50 (Homo sapiens, ACHN, Kidney, read-out: Cell Count GI50): 9.47 µM | IC50 (Homo sapiens, ACHN, Kidney): 9.5 µM | EC50 (Homo sapiens, AGS, Stomach): 5.25 µM | GI50 (Homo sapiens, AGS, Stomach, read-out: Cell Count GI50): 5.24 µM | IC50 (Homo sapiens, AGS, Stomach): 5.25 µM | EC50 [15]: 9.62 µM | GI50 (Homo sapiens, AN3-CA, AN3 CA, Female GU - Uterus, read-out: Cell Count GI50): 9.43 µM | IC50 [15]: 9.62 µM | EC50 [16]: 13.5 µM | GI50 (Homo sapiens, ARH-77, ARH-77, Myeloma, read-out: Cell Count GI50): 13.4 µM | IC50 [16]: 13.5 µM | EC50 [17]: 14.7 µM | GI50 (Homo sapiens, ASPC1, AsPC-1, Pancreas, read-out: Cell Count GI50): 14.5 µM | IC50 [17]: 14.7 µM | EC50 [18]: 10.1 µM | GI50 (Homo sapiens, AU565, AU565, Breast, read-out: Cell Count GI50): 10 µM | IC50 [18]: 10.1 µM | EC50 (Homo sapiens, BC-1, Lymphoma): 4.16 µM | GI50 (Homo sapiens, BC-1, Lymphoma, read-out: Cell Count GI50): 4.16 µM | IC50 (Homo sapiens, BC-1, Lymphoma): 4.16 µM | EC50 [19]: 8.82 µM | GI50 (Homo sapiens, BCP-1, BCP-1, Lymphoma, read-out: Cell Count GI50): 8.75 µM | IC50 [19]: 8.82 µM | EC50 [20]: 13.1 µM | GI50 (Homo sapiens, BE(2)-C, BE(2)C, CNS - Neuroblastoma, read-out: Cell Count GI50): 13 µM | IC50 [20]: 13.1 µM | EC50 [21]: 9.7 µM | GI50 (Homo sapiens, BFTC-905, BFTC-905, Bladder, read-out: Cell Count GI50): 9.68 µM | IC50 [21]: 9.7 µM | EC50 [22]: 6.8 µM | GI50 (Homo sapiens, BHT-101, BHT-101, Endocrine - Thyroid, read-out: Cell Count GI50): 6.77 µM | IC50 [22]: 6.8 µM | EC50 [23]: > 30 µM | GI50 (Homo sapiens, BM-1604, BM-1604, Prostate, read-out: Cell Count GI50): > 30 µM | IC50 [23]: > 30 µM | EC50 [24]: 17.3 µM | GI50 (Homo sapiens, BPH-1, BPH1, Prostate, read-out: Cell Count GI50): 17.3 µM | IC50 [24]: 17.3 µM | EC50 [25]: 14.1 µM | GI50 (Homo sapiens, BT-20, BT20, Breast, read-out: Cell Count GI50): 13.9 µM | IC50 [25]: 14.3 µM | EC50 (Homo sapiens, BT-474, BT474, Breast): 25.5 µM
